ChEMBL document CHEMBL2177000, “Pharmacokinetic optimization of class-selective histone deacetylase inhibitors and identification of associated candidate predictive biomarkers of hepatocellular carcinoma tumor response” (J Med Chem, 2012)

Key:
Histone deacetylase 2 = Histone deacetylase 2 (Homo sapiens, UniProt Q92769); experiment: Inhibition of HDAC2 using p53 (379 to 382 residues) based fluorogenic peptide substrate
Cytochrome P450 2C19 = Cytochrome P450 2C19 (Homo sapiens, UniProt P33261); experiment: Inhibition of CYP2C19 in human liver microsomes in presence of NADPH by LC-MS/MS method; format: ADME, Microsome
Cytochrome P450 2C19, sequence (P33261 whole entry): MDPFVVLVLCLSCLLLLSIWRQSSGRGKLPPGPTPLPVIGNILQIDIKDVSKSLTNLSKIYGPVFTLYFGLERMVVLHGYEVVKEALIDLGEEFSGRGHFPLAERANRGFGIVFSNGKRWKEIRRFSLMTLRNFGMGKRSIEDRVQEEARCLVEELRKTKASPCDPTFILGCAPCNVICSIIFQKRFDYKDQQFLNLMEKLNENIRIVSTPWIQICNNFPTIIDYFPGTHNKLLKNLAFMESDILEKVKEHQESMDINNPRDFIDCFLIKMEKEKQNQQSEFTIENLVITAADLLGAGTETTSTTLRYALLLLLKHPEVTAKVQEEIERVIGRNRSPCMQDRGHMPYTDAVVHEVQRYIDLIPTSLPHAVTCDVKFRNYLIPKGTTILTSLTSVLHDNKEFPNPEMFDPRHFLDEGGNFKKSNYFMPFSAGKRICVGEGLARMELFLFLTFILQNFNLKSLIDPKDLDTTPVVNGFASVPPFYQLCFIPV

Cytochrome P450 2C9 = Cytochrome P450 2C9 (Homo sapiens, UniProt P11712); experiment: Inhibition of CYP2C9 in human liver microsomes in presence of NADPH by LC-MS/MS method; format: ADME, Microsome
Cytochrome P450 2C9, sequence (P11712 whole entry, the tested form may be a part): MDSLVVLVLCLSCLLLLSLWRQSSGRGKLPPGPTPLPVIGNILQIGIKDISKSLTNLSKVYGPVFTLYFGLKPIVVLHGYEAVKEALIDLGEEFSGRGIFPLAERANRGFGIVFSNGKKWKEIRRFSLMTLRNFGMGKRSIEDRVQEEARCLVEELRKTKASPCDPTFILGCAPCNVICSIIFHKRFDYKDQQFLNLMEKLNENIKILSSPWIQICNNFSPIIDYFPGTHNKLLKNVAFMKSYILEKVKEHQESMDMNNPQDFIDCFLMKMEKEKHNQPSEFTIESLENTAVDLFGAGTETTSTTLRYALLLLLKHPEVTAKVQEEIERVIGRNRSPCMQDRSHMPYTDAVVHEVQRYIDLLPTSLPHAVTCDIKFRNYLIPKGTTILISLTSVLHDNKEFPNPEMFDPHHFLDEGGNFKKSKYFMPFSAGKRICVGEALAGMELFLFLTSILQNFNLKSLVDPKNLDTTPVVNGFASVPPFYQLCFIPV

Histone deacetylase 1 = Histone deacetylase 1 (Homo sapiens, UniProt Q13547); experiment: Inhibition of HDAC1 using p53 (379 to 382 residues) based fluorogenic peptide substrate
Histone deacetylase 1, sequence (Q13547 whole entry, the tested form may be a part): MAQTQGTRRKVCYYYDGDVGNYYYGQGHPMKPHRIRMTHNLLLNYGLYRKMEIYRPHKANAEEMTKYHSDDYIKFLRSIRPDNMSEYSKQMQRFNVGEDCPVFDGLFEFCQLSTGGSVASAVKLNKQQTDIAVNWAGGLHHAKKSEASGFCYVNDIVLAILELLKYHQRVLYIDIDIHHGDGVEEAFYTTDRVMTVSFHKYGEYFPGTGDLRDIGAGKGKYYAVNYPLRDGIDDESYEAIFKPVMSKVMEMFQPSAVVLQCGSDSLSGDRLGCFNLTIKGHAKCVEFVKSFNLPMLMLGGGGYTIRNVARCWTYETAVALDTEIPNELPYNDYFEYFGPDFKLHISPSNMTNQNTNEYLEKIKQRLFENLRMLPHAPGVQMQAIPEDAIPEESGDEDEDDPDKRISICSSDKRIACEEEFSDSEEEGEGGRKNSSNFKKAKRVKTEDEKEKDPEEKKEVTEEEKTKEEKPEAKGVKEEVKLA

[1] = target: T1, Polyamine deacetylase HDAC10 (Homo sapiens, UniProt Q969S8); experiment: Inhibition of HDAC10 using p53 (379 to 382 residues) based fluorogenic peptide substrate
T1 sequence (Q969S8 whole entry): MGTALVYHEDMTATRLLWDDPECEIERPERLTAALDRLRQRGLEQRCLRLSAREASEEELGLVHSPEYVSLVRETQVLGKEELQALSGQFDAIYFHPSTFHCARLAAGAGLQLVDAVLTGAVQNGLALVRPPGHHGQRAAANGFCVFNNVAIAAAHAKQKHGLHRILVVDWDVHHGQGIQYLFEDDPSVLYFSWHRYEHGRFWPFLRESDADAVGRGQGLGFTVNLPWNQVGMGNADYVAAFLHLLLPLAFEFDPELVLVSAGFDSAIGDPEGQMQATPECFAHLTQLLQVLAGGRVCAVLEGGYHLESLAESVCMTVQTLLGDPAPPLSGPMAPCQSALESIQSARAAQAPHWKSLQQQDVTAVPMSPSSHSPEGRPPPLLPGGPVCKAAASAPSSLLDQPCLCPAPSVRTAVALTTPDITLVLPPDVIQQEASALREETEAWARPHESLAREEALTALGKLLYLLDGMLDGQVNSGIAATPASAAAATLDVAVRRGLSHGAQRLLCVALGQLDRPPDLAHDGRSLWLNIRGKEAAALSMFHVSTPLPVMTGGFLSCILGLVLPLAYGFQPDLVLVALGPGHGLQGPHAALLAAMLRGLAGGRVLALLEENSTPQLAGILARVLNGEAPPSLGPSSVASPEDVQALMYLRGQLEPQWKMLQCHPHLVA

Histone deacetylase 5 = Histone deacetylase 5 (Homo sapiens, UniProt Q9UQL6); experiment: Inhibition of HDAC5 using p53 (379 to 382 residues) based fluorogenic peptide substrate
Histone deacetylase 8 = target: T2, Histone deacetylase 8 (Homo sapiens, UniProt Q9BY41); experiment: Inhibition of HDAC8 using p53 (379 to 382 residues) based fluorogenic peptide substrate
T2 sequence (Q9BY41 whole entry): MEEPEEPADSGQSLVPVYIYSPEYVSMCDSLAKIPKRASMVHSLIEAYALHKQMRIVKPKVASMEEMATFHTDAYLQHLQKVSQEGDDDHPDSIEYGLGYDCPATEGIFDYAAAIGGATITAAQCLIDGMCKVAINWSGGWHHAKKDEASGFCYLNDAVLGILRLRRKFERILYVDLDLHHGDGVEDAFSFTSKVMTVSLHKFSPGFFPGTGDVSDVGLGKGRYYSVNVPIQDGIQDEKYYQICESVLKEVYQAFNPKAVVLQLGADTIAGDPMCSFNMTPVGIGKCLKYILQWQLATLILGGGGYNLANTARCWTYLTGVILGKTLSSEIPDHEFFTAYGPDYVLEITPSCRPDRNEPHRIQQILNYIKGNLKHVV

Histone deacetylase 9 = Histone deacetylase 9 (Homo sapiens, UniProt Q9UKV0); experiment: Inhibition of HDAC9 using p53 (379 to 382 residues) based fluorogenic peptide substrate
Histone deacetylase 9, sequence (Q9UKV0 whole entry, the tested form may be a part): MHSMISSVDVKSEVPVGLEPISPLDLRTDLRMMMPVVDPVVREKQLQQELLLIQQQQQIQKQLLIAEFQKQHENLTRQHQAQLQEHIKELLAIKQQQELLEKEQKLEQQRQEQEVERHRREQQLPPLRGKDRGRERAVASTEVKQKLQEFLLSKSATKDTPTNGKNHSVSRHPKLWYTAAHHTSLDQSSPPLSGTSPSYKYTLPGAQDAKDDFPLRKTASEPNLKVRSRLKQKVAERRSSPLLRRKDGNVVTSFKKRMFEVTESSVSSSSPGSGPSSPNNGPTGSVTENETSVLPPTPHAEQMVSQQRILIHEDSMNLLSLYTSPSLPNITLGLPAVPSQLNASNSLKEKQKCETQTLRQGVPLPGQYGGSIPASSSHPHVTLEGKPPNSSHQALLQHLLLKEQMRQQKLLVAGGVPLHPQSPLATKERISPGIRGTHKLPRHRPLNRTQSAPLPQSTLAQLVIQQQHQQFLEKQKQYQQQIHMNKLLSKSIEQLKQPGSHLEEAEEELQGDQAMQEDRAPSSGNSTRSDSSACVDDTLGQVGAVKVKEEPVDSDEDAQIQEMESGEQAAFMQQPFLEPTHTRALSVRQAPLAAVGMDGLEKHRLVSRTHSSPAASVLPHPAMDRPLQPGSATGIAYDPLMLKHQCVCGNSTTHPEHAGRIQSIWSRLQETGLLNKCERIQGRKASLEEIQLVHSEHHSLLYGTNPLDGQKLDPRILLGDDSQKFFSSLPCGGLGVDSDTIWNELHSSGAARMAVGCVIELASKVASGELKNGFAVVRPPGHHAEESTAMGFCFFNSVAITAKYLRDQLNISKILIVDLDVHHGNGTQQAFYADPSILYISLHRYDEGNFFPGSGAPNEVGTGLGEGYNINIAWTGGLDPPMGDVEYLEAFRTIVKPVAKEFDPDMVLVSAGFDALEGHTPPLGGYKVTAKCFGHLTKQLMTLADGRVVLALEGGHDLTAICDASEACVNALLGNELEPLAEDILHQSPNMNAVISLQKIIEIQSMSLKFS

Histone deacetylase 3 = Histone deacetylase 3 (Homo sapiens, UniProt O15379); experiment: Inhibition of HDAC3 using p53 (379 to 382 residues) based fluorogenic peptide substrate
Histone deacetylase 3, sequence (O15379 whole entry, the tested form may be a part): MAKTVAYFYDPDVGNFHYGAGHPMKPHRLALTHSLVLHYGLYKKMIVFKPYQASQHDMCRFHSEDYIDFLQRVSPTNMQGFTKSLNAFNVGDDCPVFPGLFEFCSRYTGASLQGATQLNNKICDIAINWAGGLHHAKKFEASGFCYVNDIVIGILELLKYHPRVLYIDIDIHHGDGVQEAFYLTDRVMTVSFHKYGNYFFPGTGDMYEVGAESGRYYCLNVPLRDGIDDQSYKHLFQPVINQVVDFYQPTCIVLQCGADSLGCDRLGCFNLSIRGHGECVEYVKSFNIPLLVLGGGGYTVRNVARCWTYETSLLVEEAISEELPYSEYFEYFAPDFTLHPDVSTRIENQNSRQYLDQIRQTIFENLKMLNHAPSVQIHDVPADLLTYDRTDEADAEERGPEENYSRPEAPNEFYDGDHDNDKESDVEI

Histone deacetylase 4 = Histone deacetylase 4 (Homo sapiens, UniProt P56524); experiment: Inhibition of HDAC4 using p53 (379 to 382 residues) based fluorogenic peptide substrate
Histone deacetylase 4, sequence (P56524 whole entry, the tested form may be a part): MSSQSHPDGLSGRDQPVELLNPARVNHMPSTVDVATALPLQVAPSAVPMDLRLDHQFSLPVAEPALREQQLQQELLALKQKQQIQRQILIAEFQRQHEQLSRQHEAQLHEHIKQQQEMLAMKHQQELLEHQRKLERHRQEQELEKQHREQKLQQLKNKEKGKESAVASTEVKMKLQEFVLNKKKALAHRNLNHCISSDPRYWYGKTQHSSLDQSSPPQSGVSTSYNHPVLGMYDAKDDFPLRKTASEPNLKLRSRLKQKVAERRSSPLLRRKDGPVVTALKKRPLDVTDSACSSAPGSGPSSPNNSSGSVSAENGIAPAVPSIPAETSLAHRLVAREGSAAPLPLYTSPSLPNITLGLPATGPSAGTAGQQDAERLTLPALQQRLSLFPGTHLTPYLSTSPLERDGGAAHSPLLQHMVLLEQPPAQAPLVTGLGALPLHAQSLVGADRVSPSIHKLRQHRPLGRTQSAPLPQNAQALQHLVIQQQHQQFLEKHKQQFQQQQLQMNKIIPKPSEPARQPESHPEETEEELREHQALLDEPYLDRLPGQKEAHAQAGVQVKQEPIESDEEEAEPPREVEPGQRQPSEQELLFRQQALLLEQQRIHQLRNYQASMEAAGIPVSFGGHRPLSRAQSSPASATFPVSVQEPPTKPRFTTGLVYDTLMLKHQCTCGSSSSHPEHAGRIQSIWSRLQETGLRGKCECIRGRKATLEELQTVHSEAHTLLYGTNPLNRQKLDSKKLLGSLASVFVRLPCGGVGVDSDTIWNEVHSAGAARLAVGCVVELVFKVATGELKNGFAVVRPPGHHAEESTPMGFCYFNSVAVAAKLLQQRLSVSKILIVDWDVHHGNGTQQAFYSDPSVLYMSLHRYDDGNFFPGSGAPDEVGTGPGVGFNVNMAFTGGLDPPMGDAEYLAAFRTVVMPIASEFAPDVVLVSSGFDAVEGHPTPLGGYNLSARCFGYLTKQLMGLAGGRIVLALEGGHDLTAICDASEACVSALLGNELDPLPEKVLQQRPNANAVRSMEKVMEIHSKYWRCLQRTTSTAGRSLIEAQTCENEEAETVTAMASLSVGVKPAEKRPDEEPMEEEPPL

Cytochrome P450 3A4 = Cytochrome P450 3A4 (Homo sapiens, UniProt P08684); experiment: Inhibition of CYP3A4 in human liver microsomes in presence of NADPH by LC-MS/MS method; format: ADME, Microsome
Cytochrome P450 3A4, sequence (P08684 whole entry): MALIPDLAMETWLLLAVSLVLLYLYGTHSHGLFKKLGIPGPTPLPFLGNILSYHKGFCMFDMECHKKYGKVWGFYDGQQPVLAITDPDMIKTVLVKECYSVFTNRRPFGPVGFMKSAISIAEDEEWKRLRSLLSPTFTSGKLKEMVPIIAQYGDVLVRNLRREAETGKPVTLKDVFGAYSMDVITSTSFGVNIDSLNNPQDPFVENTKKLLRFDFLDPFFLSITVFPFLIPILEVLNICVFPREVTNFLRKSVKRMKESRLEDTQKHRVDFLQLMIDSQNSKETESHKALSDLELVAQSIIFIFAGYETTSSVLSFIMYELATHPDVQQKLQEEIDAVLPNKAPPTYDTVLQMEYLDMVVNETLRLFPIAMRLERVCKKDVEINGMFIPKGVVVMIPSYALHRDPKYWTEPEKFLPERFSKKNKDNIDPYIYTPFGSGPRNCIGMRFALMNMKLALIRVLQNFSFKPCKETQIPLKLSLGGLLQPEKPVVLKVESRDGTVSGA

Cytochrome P450 1A2 = target: T3, Cytochrome P450 1A2 (Homo sapiens, UniProt P05177); experiment: Inhibition of CYP1A2 in human liver microsomes in presence of NADPH by LC-MS/MS method; format: ADME, Microsome
T3 sequence (P05177 whole entry): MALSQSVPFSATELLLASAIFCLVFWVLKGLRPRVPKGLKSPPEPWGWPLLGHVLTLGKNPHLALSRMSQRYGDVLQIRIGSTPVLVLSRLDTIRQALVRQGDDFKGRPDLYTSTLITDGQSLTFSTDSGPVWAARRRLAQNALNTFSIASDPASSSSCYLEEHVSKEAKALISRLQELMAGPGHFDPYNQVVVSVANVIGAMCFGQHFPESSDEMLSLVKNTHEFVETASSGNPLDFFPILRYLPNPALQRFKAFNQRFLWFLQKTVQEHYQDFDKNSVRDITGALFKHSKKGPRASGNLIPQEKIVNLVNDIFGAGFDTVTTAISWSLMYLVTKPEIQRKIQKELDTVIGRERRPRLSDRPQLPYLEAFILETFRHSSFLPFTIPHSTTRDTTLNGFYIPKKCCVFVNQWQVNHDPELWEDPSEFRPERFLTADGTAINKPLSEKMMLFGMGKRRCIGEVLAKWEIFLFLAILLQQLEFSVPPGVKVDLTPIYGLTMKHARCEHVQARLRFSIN

Histone deacetylase 11 = target: T4, Histone deacetylase 11 (Homo sapiens, UniProt Q96DB2); experiment: Inhibition of HDAC11 using p53 (379 to 382 residues) based fluorogenic peptide substrate
T4 sequence (Q96DB2 whole entry): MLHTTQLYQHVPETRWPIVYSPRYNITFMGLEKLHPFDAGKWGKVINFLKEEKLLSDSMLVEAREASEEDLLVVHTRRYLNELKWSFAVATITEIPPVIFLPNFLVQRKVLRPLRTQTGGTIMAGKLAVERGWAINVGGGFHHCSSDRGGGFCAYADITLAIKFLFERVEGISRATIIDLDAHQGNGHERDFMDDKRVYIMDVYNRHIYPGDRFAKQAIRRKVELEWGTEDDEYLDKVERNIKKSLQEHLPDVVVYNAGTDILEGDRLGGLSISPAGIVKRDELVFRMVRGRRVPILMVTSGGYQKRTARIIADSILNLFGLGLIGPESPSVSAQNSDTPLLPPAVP

Histone deacetylase 2, sequence (Q92769 whole entry, the tested form may be a part): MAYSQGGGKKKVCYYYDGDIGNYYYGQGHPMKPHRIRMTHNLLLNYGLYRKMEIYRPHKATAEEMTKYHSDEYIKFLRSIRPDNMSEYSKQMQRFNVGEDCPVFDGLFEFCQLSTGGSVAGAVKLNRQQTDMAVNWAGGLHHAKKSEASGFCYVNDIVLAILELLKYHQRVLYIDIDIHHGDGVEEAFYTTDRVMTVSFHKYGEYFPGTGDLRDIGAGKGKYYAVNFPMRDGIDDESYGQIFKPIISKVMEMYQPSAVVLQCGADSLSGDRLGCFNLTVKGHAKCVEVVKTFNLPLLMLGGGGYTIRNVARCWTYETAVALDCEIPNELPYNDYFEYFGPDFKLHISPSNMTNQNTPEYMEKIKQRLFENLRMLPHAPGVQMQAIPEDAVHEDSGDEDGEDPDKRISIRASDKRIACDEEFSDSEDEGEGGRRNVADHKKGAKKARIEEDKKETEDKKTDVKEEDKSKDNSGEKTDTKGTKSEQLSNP

IC50 (Histone deacetylase 2)	IC50 (Cytochrome P450 2C19)	IC50 (Cytochrome P450 2C9)	IC50 (Histone deacetylase 1)	IC50 [1]	IC50 (Histone deacetylase 5)	IC50 (Histone deacetylase 8)	IC50 (Histone deacetylase 9)	IC50 (Histone deacetylase 3)	IC50 (Histone deacetylase 4)	IC50 (Cytochrome P450 3A4)	IC50 (Cytochrome P450 1A2)	IC50 (Histone deacetylase 11)	Compound
0.25 µM	43 µM	29 µM	0.06 µM	3.4 µM	3.5 µM	> 30 µM	16 µM	0.23 µM	13 µM	14 µM	42 µM	14 µM	CN1C[C@H](C(=O)Nc2ccc(Cl)cc2)[C@@H](c2ccc(/C=C/C(=O)Nc3ccccc3N)cc2)C1
0.27 µM	43 µM	23 µM	0.14 µM	1.6 µM	1.1 µM	> 30 µM	13 µM	0.2 µM	36 µM	21 µM	50 µM	20 µM	CN1C[C@@H](C(=O)Nc2ccc(Cl)cc2)[C@H](c2ccc(/C=C/C(=O)Nc3ccccc3N)cc2)C1
0.22 µM	21 µM	13 µM	0.1 µM	5 µM	5.3 µM	> 30 µM	43 µM	0.23 µM	46 µM	4 µM	28 µM	> 30 µM	CN1C[C@H](C(=O)Nc2ccc(Cl)cc2)[C@@H](c2ccc(/C=C/C(=O)Nc3ccccc3N)cc2F)C1 (racemic)
